How the values were obtained:
[1] = target: Sodium-dependent serotonin transporter (Homo sapiens) (UniProt P31645); assay: Displacement of [3H]imipramine from human recombinant 5-HT transporter expressed in CHO cells at 1 uM; assay type: cell-based
[2] = target: Sodium-dependent dopamine transporter (Homo sapiens) (UniProt Q01959); assay: Displacement of [3H]BTCP from human recombinant DA transporter expressed in CHO cells at 1 uM; assay type: cell-based
[3] = target: Sodium-dependent noradrenaline transporter (Homo sapiens) (UniProt P23975); assay: Displacement of [3H]nisoxetine from human recombinant NE transporter expressed in CHO cells at 1 uM; assay type: cell-based
Rattus norvegicus [4] = species on record: Rattus norvegicus; assay: Displacement of [3H]batrachotoxinin from rat Na+ channel site 2 in cerebral cortex; assay type: tissue-based; settings: concentration not given here
Rattus norvegicus [5] = species on record: Rattus norvegicus; assay: Displacement of [35S]TBPS from rat GABA gated chloride channel in cerebral cortex; assay type: tissue-based; settings: concentration not given here
Rattus norvegicus [6] = species on record: Rattus norvegicus; assay: Displacement of [125I]a-dendrotoxin from rat K+ V channel in cerebral cortex; assay type: tissue-based; settings: concentration not given here
Rattus norvegicus [7] = species on record: Rattus norvegicus; assay: Displacement of [3H](-)D888 from rat L-type Ca2+ channel verapamil site in cerebral cortex; assay type: tissue-based; settings: concentration not given here
[8] = target: Vasopressin V1a receptor (Homo sapiens) (UniProt P37288); assay: Displacement of [3H]AVP from human recombinant V1a receptor expressed in CHO cells at 1 uM; assay type: cell-based
[9] = target: Somatostatin receptor (Mus musculus) (UniProt P30935+O08858+P30875+P30873+P49660); assay: Displacement of [125I]Tyr11-somatostatin-14 from mouse sst receptor in AtT20 cells; assay type: cell-based; settings: concentration not given here
[10] = target: Vasoactive intestinal polypeptide receptor 1 (Homo sapiens) (UniProt P32241); assay: Displacement of [125I]VIP from human recombinant VPAC1 receptor expressed in CHO cells at 1 uM; assay type: cell-based
[11] = target: 5-hydroxytryptamine receptor 7 (Homo sapiens) (UniProt P34969); assay: Displacement of [3H]LSD from human recombinant 5-HT7 receptor expressed in CHO cells at 1 uM; assay type: cell-based
Chain of 5-hydroxytryptamine receptor 7 (Homo sapiens) (P34969 whole entry): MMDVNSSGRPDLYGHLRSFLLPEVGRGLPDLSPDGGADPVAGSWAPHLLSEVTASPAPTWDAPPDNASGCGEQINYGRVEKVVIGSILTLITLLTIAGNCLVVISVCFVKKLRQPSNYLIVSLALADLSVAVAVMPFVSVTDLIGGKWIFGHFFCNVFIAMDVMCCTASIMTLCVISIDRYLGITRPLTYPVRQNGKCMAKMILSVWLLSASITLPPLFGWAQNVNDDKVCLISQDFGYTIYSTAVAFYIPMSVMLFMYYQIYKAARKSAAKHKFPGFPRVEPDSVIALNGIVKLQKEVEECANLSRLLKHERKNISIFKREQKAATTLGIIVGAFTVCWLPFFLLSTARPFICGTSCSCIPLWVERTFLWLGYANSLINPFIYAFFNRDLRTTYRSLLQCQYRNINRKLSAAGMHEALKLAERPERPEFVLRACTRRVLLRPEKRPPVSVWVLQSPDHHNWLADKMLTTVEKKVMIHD

[12] = target: 5-hydroxytryptamine receptor 6 (Homo sapiens) (UniProt P50406); assay: Displacement of [3H]LSD from human recombinant 5-HT6 receptor expressed in CHO cells at 1 uM; assay type: cell-based
Chain of 5-hydroxytryptamine receptor 6 (Homo sapiens) (P50406 whole entry): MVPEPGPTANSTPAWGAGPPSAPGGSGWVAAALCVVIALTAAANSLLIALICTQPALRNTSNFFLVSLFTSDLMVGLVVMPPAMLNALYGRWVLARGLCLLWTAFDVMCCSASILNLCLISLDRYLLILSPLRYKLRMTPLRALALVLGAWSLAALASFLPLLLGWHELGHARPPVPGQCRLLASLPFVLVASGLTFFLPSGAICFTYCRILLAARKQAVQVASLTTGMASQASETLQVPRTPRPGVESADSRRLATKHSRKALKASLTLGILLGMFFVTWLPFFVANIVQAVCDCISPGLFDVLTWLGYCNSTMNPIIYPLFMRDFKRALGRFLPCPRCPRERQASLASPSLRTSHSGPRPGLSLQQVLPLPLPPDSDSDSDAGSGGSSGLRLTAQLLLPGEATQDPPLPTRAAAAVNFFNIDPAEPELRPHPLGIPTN

[13] = target: 5-hydroxytryptamine receptor 3A (Homo sapiens) (UniProt P46098); assay: Displacement of [3H]BRL43694 from human recombinant 5-HT3 receptor expressed in CHO cells at 1 uM; assay type: cell-based
[14] = target: 5-hydroxytryptamine receptor 5A (Homo sapiens) (UniProt P47898); assay: Displacement of [3H]LSD from human recombinant 5-HT5A receptor expressed in CHO cells at 1 uM; assay type: cell-based
[15] = target: 5-hydroxytryptamine receptor 2B (Homo sapiens) (UniProt P41595); assay: Displacement of [125I](+/-)DOI from human recombinant 5-HT2B receptor expressed in CHO cells at 1 uM; assay type: cell-based
[16] = target: 5-hydroxytryptamine receptor 2A (Homo sapiens) (UniProt P28223); assay: Displacement of [3H]Ketanserin from human recombinant 5-HT2A receptor expressed in HEK293 cells at 1 uM; assay type: cell-based
Chain of 5-hydroxytryptamine receptor 2A (Homo sapiens) (P28223 whole entry): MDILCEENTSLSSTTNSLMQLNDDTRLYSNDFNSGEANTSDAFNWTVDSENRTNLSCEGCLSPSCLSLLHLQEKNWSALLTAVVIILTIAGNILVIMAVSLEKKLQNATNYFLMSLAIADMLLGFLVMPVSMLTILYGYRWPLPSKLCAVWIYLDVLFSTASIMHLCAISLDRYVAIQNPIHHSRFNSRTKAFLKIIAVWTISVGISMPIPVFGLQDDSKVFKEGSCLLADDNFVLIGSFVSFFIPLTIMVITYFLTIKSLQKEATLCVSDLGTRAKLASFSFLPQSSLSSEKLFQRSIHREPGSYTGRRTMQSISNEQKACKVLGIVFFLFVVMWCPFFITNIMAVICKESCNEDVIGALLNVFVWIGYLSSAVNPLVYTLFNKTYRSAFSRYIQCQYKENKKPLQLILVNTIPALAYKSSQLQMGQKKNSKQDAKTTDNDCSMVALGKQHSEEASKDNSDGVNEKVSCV

[17] = target: 5-hydroxytryptamine receptor 1A (Homo sapiens) (UniProt P08908); assay: Displacement of [3H]8-OH-DPAT from human recombinant 5-HT1A receptor expressed in HEK293 cells at 1 uM; assay type: cell-based
Chain of 5-hydroxytryptamine receptor 1A (Homo sapiens) (P08908 whole entry): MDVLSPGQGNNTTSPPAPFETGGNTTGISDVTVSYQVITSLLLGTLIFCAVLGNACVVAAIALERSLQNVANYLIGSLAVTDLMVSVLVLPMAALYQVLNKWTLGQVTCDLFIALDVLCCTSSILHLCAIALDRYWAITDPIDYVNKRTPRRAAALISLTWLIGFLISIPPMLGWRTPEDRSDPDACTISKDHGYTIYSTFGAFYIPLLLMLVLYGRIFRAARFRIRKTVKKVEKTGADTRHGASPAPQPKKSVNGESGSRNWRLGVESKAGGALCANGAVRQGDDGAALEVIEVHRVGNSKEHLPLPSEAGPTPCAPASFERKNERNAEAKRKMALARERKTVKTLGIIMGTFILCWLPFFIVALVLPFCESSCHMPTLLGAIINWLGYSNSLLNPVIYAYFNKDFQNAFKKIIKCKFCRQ

[18] = target: 5-hydroxytryptamine receptor 1B (Rattus norvegicus) (UniProt P28564); assay: Displacement of [125I]CYP from rat 5-HT1B receptor in cerebral cortex; assay type: tissue-based; settings: concentration not given here
[19] = target: Thromboxane A2 receptor (Homo sapiens) (UniProt P21731); assay: Displacement of [3H]SQ29548 from human recombinant TP receptor expressed in HEK293 cells at 1 uM; assay type: cell-based
Chain of Thromboxane A2 receptor (Homo sapiens) (P21731 whole entry): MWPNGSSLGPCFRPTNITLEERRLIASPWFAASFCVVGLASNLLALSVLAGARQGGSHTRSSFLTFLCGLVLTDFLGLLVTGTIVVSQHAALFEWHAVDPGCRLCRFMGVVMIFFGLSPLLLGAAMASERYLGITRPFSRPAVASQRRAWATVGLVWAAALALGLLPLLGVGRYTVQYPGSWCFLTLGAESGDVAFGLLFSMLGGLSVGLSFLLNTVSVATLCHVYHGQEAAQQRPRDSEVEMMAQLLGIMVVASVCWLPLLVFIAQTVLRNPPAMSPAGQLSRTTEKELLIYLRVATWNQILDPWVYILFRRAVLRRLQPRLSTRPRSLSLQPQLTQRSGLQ

[20] = target: Nociceptin receptor (Homo sapiens) (UniProt P41146); assay: Displacement of [3H]Nociceptin from human recombinant ORL1 receptor expressed in HEK293 cells at 1 uM; assay type: cell-based
[21] = target: Kappa-type opioid receptor (Rattus norvegicus) (UniProt P34975); assay: Displacement of [3H]U69593 from rat recombinant kappa opioid receptor expressed in CHO cells at 1 uM; assay type: cell-based
Chain of Kappa-type opioid receptor (Rattus norvegicus) (P34975 whole entry): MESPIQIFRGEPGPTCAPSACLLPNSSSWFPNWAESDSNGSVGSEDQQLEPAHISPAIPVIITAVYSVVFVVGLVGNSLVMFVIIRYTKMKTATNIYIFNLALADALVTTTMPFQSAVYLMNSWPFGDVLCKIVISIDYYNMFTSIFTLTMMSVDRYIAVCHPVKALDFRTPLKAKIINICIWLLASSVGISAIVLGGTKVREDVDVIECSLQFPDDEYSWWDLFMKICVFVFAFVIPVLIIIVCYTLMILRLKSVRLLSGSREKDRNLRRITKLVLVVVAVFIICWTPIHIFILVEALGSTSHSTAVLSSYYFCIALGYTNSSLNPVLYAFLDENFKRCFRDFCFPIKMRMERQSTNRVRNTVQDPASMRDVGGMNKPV

[22] = target: Mu-type opioid receptor (Homo sapiens) (UniProt P35372); assay: Displacement of [3H]DAMGO from human recombinant mu opioid receptor expressed in HEK293 cells at 1 uM; assay type: cell-based
CHO = assay: Displacement of [3H]DADLE from human recombinant delta2 opioid receptor expressed in CHO cells at 1 uM; assay type: cell-based
[23] = target: Neuropeptide Y receptor type 2 (Homo sapiens) (UniProt P49146); assay: Displacement of [125I]peptideYY from human Y2 receptor in KAN-TS cells; assay type: cell-based; settings: concentration not given here
[24] = target: Neuromedin-K receptor (Homo sapiens) (UniProt P29371); assay: Displacement of [3H]SR142801 from human recombinant NK3 receptor expressed in CHO cells at 1 uM; assay type: cell-based
[25] = target: Substance-K receptor (Homo sapiens) (UniProt P21452); assay: Displacement of [125I]NKA from human recombinant NK2 receptor expressed in CHO cells at 1 uM; assay type: cell-based
[26] = target: Muscarinic acetylcholine receptor M3 (Homo sapiens) (UniProt P20309); assay: Displacement of [3H]4-DAMP from human recombinant muscarinic M3 receptor expressed in CHO cells at 1 uM; assay type: cell-based
Chain of Muscarinic acetylcholine receptor M3 (Homo sapiens) (P20309 whole entry, looked up): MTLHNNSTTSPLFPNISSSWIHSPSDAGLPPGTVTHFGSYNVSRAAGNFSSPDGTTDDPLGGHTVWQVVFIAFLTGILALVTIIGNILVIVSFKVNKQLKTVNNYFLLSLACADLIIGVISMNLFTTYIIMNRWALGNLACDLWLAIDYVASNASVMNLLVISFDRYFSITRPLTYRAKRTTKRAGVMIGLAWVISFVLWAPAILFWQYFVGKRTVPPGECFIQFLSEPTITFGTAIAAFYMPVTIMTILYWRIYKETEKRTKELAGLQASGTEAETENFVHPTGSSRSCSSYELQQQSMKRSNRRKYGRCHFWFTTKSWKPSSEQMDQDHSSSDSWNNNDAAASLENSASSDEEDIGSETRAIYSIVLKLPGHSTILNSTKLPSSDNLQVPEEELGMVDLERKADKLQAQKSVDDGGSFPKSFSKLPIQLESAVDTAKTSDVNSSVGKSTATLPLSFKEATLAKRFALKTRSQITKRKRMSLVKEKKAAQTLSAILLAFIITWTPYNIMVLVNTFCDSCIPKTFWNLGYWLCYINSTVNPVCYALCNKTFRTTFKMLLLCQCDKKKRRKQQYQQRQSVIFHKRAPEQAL

[27] = target: Muscarinic acetylcholine receptor M1 (Homo sapiens) (UniProt P11229); assay: Displacement of [3H]pirenzepine from human recombinant muscarinic M1 receptor expressed in CHO cells at 1 uM; assay type: cell-based
[28] = target: Muscarinic acetylcholine receptor M2 (Homo sapiens) (UniProt P08172); assay: Displacement of [3H]AF-DX384 from human recombinant muscarinic M2 receptor expressed in CHO cells at 1 uM; assay type: cell-based
[29] = target: Melatonin receptor type 1A (Homo sapiens) (UniProt P48039); assay: Displacement of [125I]2-iodomelatonin from human recombinant MT1 receptor expressed in CHO cells at 1 uM; assay type: cell-based
[30] = target: Melanocortin receptor 4 (Homo sapiens) (UniProt P32245); assay: Displacement of [125I]NDP-a-MSH from human recombinant MC4 receptor expressed in CHO cells at 1 uM; assay type: cell-based
Chain of Melanocortin receptor 4 (Homo sapiens) (P32245 whole entry): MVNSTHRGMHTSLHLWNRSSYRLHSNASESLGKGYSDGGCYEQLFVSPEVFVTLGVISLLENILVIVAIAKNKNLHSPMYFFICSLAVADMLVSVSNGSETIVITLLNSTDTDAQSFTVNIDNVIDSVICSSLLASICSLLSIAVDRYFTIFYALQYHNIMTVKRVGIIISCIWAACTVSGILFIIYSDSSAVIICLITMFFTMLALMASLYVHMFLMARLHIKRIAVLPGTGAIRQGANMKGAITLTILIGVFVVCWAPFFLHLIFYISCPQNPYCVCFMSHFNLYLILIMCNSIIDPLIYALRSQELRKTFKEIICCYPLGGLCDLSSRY

[31] = target: Histamine H1 receptor (Homo sapiens) (UniProt P35367); assay: Displacement of [3H]pyrilamine from human recombinant H1 receptor expressed in HEK293 cells at 1 uM; assay type: cell-based
[32] = target: Histamine H2 receptor (Homo sapiens) (UniProt P25021); assay: Displacement of [125I]APT from human recombinant H2 receptor expressed in CHO cells at 1 uM; assay type: cell-based
[33] = target: C-X-C chemokine receptor type 2 (Homo sapiens) (UniProt P25025); assay: Displacement of [125I]IL-8 from human recombinant CXCR2 receptor expressed in HEK293 cells at 1 uM; assay type: cell-based
[34] = target: Galanin receptor type 2 (Homo sapiens) (UniProt O43603); assay: Displacement of [125I]Galanin from human recombinant GAL2 receptor expressed in CHO cells at 1 uM; assay type: cell-based
Chain of Galanin receptor type 2 (Homo sapiens) (O43603 whole entry): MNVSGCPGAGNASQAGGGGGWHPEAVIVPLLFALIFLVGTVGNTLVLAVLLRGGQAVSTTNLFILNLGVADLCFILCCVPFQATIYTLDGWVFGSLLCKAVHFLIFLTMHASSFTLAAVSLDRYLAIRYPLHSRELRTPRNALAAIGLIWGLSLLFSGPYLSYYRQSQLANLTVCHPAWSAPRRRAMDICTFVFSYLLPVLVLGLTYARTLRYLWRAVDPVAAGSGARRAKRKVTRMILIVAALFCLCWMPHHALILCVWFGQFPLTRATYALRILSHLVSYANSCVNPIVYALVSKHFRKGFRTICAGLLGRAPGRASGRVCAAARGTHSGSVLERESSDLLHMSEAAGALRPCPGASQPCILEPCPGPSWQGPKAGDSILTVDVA

Rattus norvegicus [35] = species on record: Rattus norvegicus; assay: Displacement of [3H]GABA from rat GABA in cerebral cortex; assay type: tissue-based; settings: concentration not given here
[36] = target: Endothelin-1 receptor (Homo sapiens) (UniProt P25101); assay: Displacement of [125I]endothelin-1 from human recombinant ETA receptor expressed in CHO cells at 1 uM; assay type: cell-based
[37] = target: D(2) dopamine receptor (Homo sapiens) (UniProt P14416); assay: Displacement of [3H]spiperone from human recombinant D2S receptor expressed in HEK293 cells at 1 uM; assay type: cell-based
[38] = target: D(1A) dopamine receptor (Homo sapiens) (UniProt P21728); assay: Displacement of [3H]SCH23390 from human recombinant D1 receptor expressed in CHO cells at 1 uM; assay type: cell-based
[39] = target: Cholecystokinin receptor type A (Homo sapiens) (UniProt P32238); assay: Displacement of [125I]CCK-8 from human recombinant CCKA receptor expressed in CHO cells at 1 uM; assay type: cell-based
[40] = target: Cannabinoid receptor 1 (Homo sapiens) (UniProt P21554); assay: Displacement of [3H]CP55940 from human recombinant CB1 receptor expressed in CHO cells at 1 uM; assay type: cell-based
[41] = target: B2 bradykinin receptor (Homo sapiens) (UniProt P30411); assay: Displacement of [3H]bradykinin from human recombinant B2 receptor expressed in CHO cells at 1 uM; assay type: cell-based
Rattus norvegicus [42] = species on record: Rattus norvegicus; assay: Displacement of [3H]flunitrazepam from rat central BZD receptor in cerebral cortex; assay type: tissue-based; settings: concentration not given here
[43] = target: Type-1 angiotensin II receptor (Homo sapiens) (UniProt P30556); assay: Displacement of [125I][Sar1,Ile8]-AT II from human recombinant AT1 receptor expressed in HEK293 cells at 1 uM; assay type: cell-based
[44] = target: Beta-2 adrenergic receptor (Homo sapiens) (UniProt P07550); assay: Displacement of [3H](-)CGP12177 from human recombinant beta2 receptor expressed in CHO cells at 1 uM; assay type: cell-based
[45] = target: Beta-1 adrenergic receptor (Homo sapiens) (UniProt P08588); assay: Displacement of [3H](-)CGP12177 from human recombinant beta1 receptor expressed in HEK293 cells at 1 uM; assay type: cell-based
Chain of Beta-1 adrenergic receptor (Homo sapiens) (P08588 whole entry, looked up): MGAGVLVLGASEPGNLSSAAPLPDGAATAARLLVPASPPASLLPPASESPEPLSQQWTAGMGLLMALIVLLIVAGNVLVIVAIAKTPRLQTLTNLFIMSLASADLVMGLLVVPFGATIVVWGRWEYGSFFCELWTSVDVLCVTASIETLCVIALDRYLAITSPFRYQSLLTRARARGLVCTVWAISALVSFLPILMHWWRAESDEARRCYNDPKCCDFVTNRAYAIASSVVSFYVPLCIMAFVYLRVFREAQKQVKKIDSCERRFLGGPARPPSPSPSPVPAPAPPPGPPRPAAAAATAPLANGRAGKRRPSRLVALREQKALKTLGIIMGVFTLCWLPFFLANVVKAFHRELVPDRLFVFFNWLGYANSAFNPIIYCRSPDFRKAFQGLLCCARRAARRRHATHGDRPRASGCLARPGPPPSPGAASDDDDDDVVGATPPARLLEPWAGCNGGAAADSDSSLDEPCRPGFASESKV

[46] = target: Adrenergic receptor alpha-1 (Rattus norvegicus) (UniProt P15823+P23944+P43140); assay: Displacement of [3H]prazosin from rat alpha1 receptor in cerebral cortex; assay type: tissue-based; settings: concentration not given here
[47] = target: Adrenergic receptor alpha-2 (Rattus norvegicus) (UniProt P22086+P19328+P22909); assay: Displacement of [3H]RX821002 from rat alpha2 receptor in cerebral cortex; assay type: tissue-based; settings: concentration not given here
[48] = target: Adenosine receptor A3 (Homo sapiens) (UniProt P0DMS8); assay: Displacement of [3H]AB-MECA from human recombinant adenosine A3 receptor expressed in HEK293 cells at 1 uM; assay type: cell-based
[49] = target: Adenosine receptor A2a (Homo sapiens) (UniProt P29274); assay: Displacement of [3H]CGS21680 from human recombinant adenosine A2A receptor expressed in HEK293 cells at 1 uM; assay type: cell-based
[50] = target: Adenosine receptor A1 (Homo sapiens) (UniProt P30542); assay: Displacement of [3H]DPCPX from human recombinant adenosine A1 receptor expressed in CHO cells at 1 uM; assay type: cell-based
[51] = target: T1, Fatty-acid amide hydrolase 1 (Mus musculus, UniProt O08914); assay: Inhibition of FAAH in mouse brain homogenate using [3Hethanolamine]AEA as substrate incubated for 20 mins prior to substrate addition measured after 15 mins by beta counting analysis; assay type: tissue-based
T1 sequence (O08914 whole entry): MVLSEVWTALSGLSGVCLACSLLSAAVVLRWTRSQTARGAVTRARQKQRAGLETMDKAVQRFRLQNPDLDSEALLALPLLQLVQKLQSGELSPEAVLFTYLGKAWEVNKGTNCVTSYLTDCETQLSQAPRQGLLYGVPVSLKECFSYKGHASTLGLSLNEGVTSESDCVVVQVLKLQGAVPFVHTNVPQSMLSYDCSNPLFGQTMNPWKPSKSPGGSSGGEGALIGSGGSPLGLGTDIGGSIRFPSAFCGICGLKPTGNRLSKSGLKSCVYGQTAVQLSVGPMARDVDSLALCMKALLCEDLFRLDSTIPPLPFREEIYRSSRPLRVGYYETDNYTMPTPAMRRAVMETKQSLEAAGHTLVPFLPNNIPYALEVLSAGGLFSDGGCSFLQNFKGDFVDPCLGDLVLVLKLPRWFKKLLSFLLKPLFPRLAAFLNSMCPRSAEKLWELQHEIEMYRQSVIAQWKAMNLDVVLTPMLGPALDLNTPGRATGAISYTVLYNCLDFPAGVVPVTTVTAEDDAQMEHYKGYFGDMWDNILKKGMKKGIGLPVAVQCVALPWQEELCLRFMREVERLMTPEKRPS

Chain of Sodium-dependent serotonin transporter (Homo sapiens) (P31645 whole entry, looked up): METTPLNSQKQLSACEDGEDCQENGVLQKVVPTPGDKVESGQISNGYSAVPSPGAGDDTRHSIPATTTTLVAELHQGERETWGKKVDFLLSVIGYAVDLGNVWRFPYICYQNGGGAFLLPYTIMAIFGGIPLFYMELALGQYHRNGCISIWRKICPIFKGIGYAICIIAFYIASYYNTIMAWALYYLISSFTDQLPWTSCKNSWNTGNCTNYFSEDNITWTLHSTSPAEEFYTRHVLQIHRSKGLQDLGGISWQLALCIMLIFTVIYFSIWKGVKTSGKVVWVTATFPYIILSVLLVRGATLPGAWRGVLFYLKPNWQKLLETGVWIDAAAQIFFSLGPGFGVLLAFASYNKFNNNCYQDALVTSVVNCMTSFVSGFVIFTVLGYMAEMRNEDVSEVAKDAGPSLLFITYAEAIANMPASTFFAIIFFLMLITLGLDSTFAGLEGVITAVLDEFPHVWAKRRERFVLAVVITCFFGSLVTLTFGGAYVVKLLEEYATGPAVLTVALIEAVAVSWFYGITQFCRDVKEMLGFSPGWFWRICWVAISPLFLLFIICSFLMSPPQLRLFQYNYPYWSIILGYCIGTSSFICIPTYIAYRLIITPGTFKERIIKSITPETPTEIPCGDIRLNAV

## CCCCCCCOc1ccc(NC(=O)Oc2cccc(N3CCNCC3)c2)cc1
[1]
  inhibition: 36%
[2]
  inhibition: 103%
[3]
  inhibition: 52%
Rattus norvegicus [4]
  inhibition: 32%
Rattus norvegicus [5]
  inhibition: 2%
Rattus norvegicus [6]
  inhibition: -5%
Rattus norvegicus [7]
  inhibition: 30%
[8]
  inhibition: 17%
[9]
  inhibition: -2%
[10]
  inhibition: -1%
[11]
  inhibition: 48%
[12]
  inhibition: 42%
[13]
  inhibition: 7%
[14]
  inhibition: 27%
[15]
  inhibition: 91%
[16]
  inhibition: 96%
[17]
  inhibition: 97%
[18]
  inhibition: 96%
[19]
  inhibition: 1%
[20]
  inhibition: 7%
[21]
  inhibition: 57%
[22]
  inhibition: 77%
CHO
  inhibition: 61%
[23]
  inhibition: -9%
[24]
  inhibition: -7%
[25]
  inhibition: -10%
[26]
  inhibition: 35%
[27]
  inhibition: 28%
[28]
  inhibition: 23%
[29]
  inhibition: -6%
[30]
  inhibition: 3%
[31]
  inhibition: 22%
[32]
  inhibition: 27%
[33]
  inhibition: -5%
[34]
  inhibition: -10%
Rattus norvegicus [35]
  inhibition: 0%
[36]
  inhibition: 14%
[37]
  inhibition: 9%
[38]
  inhibition: 70%
[39]
  inhibition: 1%
[40]
  inhibition: 30%
[41]
  inhibition: -5%
Rattus norvegicus [42]
  inhibition: 16%
[43]
  inhibition: -1%
[44]
  inhibition: 19%
[45]
  inhibition: 66%
[46]
  inhibition: 7%
[47]
  inhibition: 52%
[48]
  inhibition: 4%
[49]
  inhibition: 3%
[50]
  inhibition: 9%
[51]
  Ki: > 500 nM
